# Experimental data as given in US12116388B2, “Amylin receptor agonists” (Novo Nordisk A/S, priority 2022, dated 2024).
# pEC50: −log10 of the molar value. Read-outs that look alike come from different tables or passages of the source. Starred links: 1 amine or outer side, 2 acyl side, 3 side chain; linkers in the order of their positions; H or OH if unused. Residues, ends and D or L forms follow the SMILES beside them. *: point of attachment. C20 diacid = O=C(O)CCCCCCCCCCCCCCCCCCC(=O)*; C18 diacid = O=C(O)CCCCCCCCCCCCCCCCC(=O)*; γGlu = O=C(O)[C@H](CCC(=O)[*:2])N[*:1]
# Key:
# [1] = Oral pharmacokinetic profiles in Beagle dogs (SNAC tablets); type: in vivo; details: oral tablet: 3 mg compound, 300 mg SNAC, 7.7 mg magnesium stearate; for half-life: male, dog, plasma, read-out: T½ (converted)
# Protocol: To be able to evaluate oral exposure following tablet dosing, tablet compositions comprising the test substance and SNAC (sodium N-(8-(2-hydroxybenzoyl)amino)caprylate) were prepared by mixing test substance with roller compacted SNAC and magnesium stearate as, e.g., described in WO 2019/149880.
# This assay was performed to measure the oral bioavailability of a compound. The assay determined the exposure of test compound following oral administration in Beagle dogs as described by relevant pharmacokinetic parameters and plasma concentration curves.
# Preparation of tablets for oral administration: tablets containing test compound used for the assay described herein were immediate release SNAC-based tablets. The test compound was spray-dried as neutral sodium salt (pH 7-8). Dry granulation was carried out by roller compaction on a Gerteis MINI-PACTOR. Tablets containing 3 mg test compound, 300 mg sodium N-(8-(2-hydroxybenzoyl)amino)caprylate (SNAC) and 7.7 mg magnesium stearate were produced on at Kilian Style One using 7.2×12 mm punches.
# Determination of the absorption following oral administration: eight (8) male Beagle dogs, 1 to 8 years of age and weighing approximately 10-15 kg at the start of the studies, were used. The dogs were group-housed in pens (12 hours light:12 hours dark), and fed individually and restrictedly once daily with Royal Canin Medium Adult dog (Royal Canin Products, China Branch, or Brogaarden A/S, Denmark). Exercise and group social were permitted daily, whenever possible. The dogs were used for repeated pharmacokinetic studies with a suitable wash-out period between successive dosing. An appropriate acclimatisation period was given prior to initiation of the first pharmacokinetic study. All handling, dosing and blood sampling of the animals were performed by trained and skilled staff. Before the studies the dogs were fasted overnight and from 0 to 4 h after dosing. Besides, the dogs were restricted to water 1 hour before dosing until 4 hours after dosing, but otherwise had ad libitum access to water during the whole period.
# Tablets containing the test compound were administered in the following manner: 10 min prior to tablet administration the dogs were dosed subcutaneously with approximately 3.2 nmol/kg of glucagon. The tablets were placed in the back of the mouth of the dog to prevent chewing. The mouth was then closed, and 10 mL of tap water was given by a syringe to facilitate swallowing of the tablet. Blood was sampled at predefined time points for up till 288 hours after dosing to adequately cover the full plasma concentration-time absorption profile of the compound. For each blood sampling time point approximately 1.2 mL of whole blood was collected in a 1.5 mL EDTA coated tube, and the tube was gently turned to allowing mixing of the sample with the EDTA. Then, the blood samples were kept on ice until centrifugation (4 min, 4° C., 4000 rpm). Plasma was pipetted into Micronic tubes on dry ice and kept at −20° C. until analysis. Blood samples were taken as appropriate, for example from a venflon in the cephalic vein in the front leg for the first 2 hours and then with syringe from the jugular vein for the rest of the time points (the first few drops were allowed to drain from the venflon to avoid heparin saline from the venflon in the sample).
# Bioanalysis was carried out as follows: plasma concentrations of test compound were assayed by plasma protein precipitation and analysed by liquid chromatography-mass spectrometry (LC-MS). Calibrators were prepared by spiking blank dog plasma with analytes to reach the final concentrations in the range typically from 0.5 to 200 nM. Calibrators, plasma blanks or study samples were prepared for LC-MS by protein precipitation by adding 3 volumes of ethanol followed by centrifugation at 4000 rpm at 4° C. for 1 h. The supernatant was diluted with 2 volumes of Milli-Q water containing 0.1% formic acid before injection on the LC-MS system. […]
# [2] = target: T1, human calcitonin receptor (hCTR) (Homo sapiens, UniProt P30988); test: Human calcitonin receptor (hCTR) in vitro potency assay, CRE-luciferase reporter in BHK cells; type: cell-based; details: BHK hCTR/CRE-Luc cells, 3 hours incubation, assay buffer with 1% ovalbumin; read-out: hCalcR potency, EC50
# T1 construct: host or cells: BHK (Baby Hamster Kidney), Hollex-1 cell line
# T1 sequence (P30988 25-474): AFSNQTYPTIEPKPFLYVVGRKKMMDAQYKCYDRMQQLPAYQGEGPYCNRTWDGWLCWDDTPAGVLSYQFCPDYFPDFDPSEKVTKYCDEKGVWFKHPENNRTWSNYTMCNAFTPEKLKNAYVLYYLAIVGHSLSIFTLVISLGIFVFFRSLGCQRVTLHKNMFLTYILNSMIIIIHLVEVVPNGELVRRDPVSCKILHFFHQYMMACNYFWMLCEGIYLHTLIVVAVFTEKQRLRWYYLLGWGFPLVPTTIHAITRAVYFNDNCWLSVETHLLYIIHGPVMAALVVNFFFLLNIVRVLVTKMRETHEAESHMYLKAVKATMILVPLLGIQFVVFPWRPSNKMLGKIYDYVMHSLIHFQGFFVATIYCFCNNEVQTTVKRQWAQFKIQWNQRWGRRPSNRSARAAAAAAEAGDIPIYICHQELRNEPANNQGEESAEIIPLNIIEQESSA
# Method in brief: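 BHK cells stably co-expressing human calcitonin receptor and a CRE-luciferase reporter, seeded the day before, were exposed to 7-fold serial dilutions (7 concentrations, often starting near 10 nM) in DMEM/HEPES/1% ovalbumin buffer for 3 h at 37 °C. Luminescence was then read after SteadyLite Plus addition.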
# [3] = endogenous amylin, background statement; cited from earlier work
Molecule,half-life [1] [h],AUC/D [1] [kg·h/L],Cmax/D [1] [kg/L],pEC50 [2],half-life [3] [h]
"CC[C@H](C)[C@H](NC(=O)[C@@H]1CCCN1C(=O)CNC(=O)[C@H](Cc1ccccc1)NC(=O)[C@H](CC(N)=O)NC(=O)[C@H](CC(=O)O)NC(=O)[C@H](CO)NC(=O)[C@H](CO)NC(=O)[C@H](Cc1c[nH]cn1)NC(=O)[C@H](Cc1c[nH]cn1)NC(=O)[C@H](CC(C)C)NC(=O)[C@H](Cc1ccccc1)NC(=O)[C@H](CCC(=O)O)NC(=O)[C@H](C)NC(=O)[C@H](CC(C)C)NC(=O)[C@H](CCCNC(=N)N)NC(=O)[C@H](C)NC(=O)[C@@H](NC(=O)[C@H](CCC(N)=O)NC(=O)[C@H](C)NC(=O)[C@@H](NC(=O)[C@H](CO)NC(=O)[C@H](CC(C)C)NC(=O)[C@H](Cc1c[nH]cn1)NC(=O)[C@H](CO)NC(=O)[C@H](C)NC(=O)CC[C@H](NC(=O)CCCCCCCCCCCCCCCCCCC(=O)O)C(=O)O)[C@@H](C)O)[C@@H](C)O)C(=O)N[C@@H](CC(C)C)C(=O)N1CCC[C@H]1C(=O)N1CCC[C@H]1C(=O)N[C@H](C(=O)N[C@@H](CC(=O)O)C(=O)N[C@H](C(=O)NCC(=O)N[C@@H](CO)C(=O)N[C@@H](CC(N)=O)C(=O)N[C@H](C(=O)N1CCC[C@H]1C(N)=O)[C@@H](C)O)C(C)C)[C@@H](C)O [Compound 2, N^1-[(4S)-4-carboxy-4-(19-carboxynonadecanoylamino)butanoyl]-[Ala1,Ser2,His3,Leu4,Ser5,Ala7,Gln8,Ala10,Glu14,His17,Asp21,Pro25,Pro28,Pro29,Asp31,Pro37]-human amylin] ({C20 diacid-γGlu}-ASHLSTAQTARLAEFLHHSSDNFGPILPPTDVGSNTP-NH2)",146,14.06,0.15,11.88,
"CC[C@H](C)[C@H](NC(=O)[C@@H]1CCCN1C(=O)CNC(=O)[C@H](Cc1ccccc1)NC(=O)[C@H](Cc1c[nH]cn1)NC(=O)[C@H](Cc1c[nH]cn1)NC(=O)[C@H](CC(C)C)NC(=O)[C@H](Cc1ccccc1)NC(=O)[C@H](CCC(=O)O)NC(=O)[C@H](C)NC(=O)[C@H](CC(C)C)NC(=O)[C@H](CCCNC(=N)N)NC(=O)[C@H](C)NC(=O)[C@@H](NC(=O)[C@H](CCC(N)=O)NC(=O)[C@H](C)NC(=O)[C@@H](NC(=O)[C@H](CO)NC(=O)[C@H](CC(C)C)NC(=O)[C@H](CO)NC(=O)CNC(=O)[C@H](C)NC(=O)CC[C@H](NC(=O)CCCCCCCCCCCCCCCCC(=O)O)C(=O)O)[C@@H](C)O)[C@@H](C)O)C(=O)N[C@@H](CC(C)C)C(=O)N1CCC[C@H]1C(=O)N1CCC[C@H]1C(=O)N[C@H](C(=O)N[C@@H](CC(=O)O)C(=O)N[C@H](C(=O)NCC(=O)N[C@@H](CO)C(=O)N[C@@H](CCC(=O)O)C(=O)N[C@H](C(=O)N1CCC[C@H]1C(N)=O)[C@@H](C)O)C(C)C)[C@@H](C)O [Compound 15, N^1-[(4S)-4-carboxy-4-(17-carboxyheptadecanoylamino)butanoy]-[Ala1,Gly2,Ser3,Leu4,Ser5,Ala7,Gln8,Ala10,Glu14,His17,Pro25,Pro28,Pro29,Asp31,Glu35,Pro37],des-(19-22)-human amylin] ({C18 diacid-γGlu}-AGSLSTAQTARLAEFLHHFGPILPPTDVGSETP-NH2)",85.9,21.07,0.29,12.00,
"amylin (KCNTATCATQRLANFLVHSSNNFGAILSSTNVGSNTY; listed as Homo sapiens) [Endogenous amylin, 37-amino acid long polypeptide hormone co-secreted with insulin from the pancreatic beta-cell]",,,,,0.25 to 0.333
